Patent US10179355B2, “Bioremediation enhancing agents and methods of use” (JRW BIOREMEDIATION, LLC, priority 2007, dated 2019)
Where “and” joins values, the source holds several entries; their conditions need not be identical. Equal values may be shown once.

Tested on: dechlorinating bacteria known to convert PCE to ethene
Experiment: Set G: Additional Yeast Metabolites and Polysaccharides as Nutrients, PCE dechlorination microcosms (kinetics, Relative Rate, paired t-test)
Format: cell-based, Dehalococcoides and Dehalobacter spp.
Source text: Certain contaminated materials (or sites) may contain indigenous microbial communities that are sufficient for complete bioremediation of contaminants. For such sites, there is no need to add microbes unless the indigenous microbes are genetically deficient in achieving the desired clean-up goals. For those sites that are microbiologically limited, microorganisms may be added to the contaminated materials (or sites). In one embodiment, the inoculum may be a mixed culture of halo-respiring bacteria that have been enriched to reach an optimal cell density. These mixed cultures of halo-respiring bacteria may be typically obtained from sediment samples from rivers, streams or any waterways. More specifically, the inoculum used in the Examples was originated from a Sangamon River sediment sample (Lodge Park, Piatt County, Ill.) See, e.g., Brennan, R. A., Sanford, R. A. and Werth, C. J. (2006). “Biodegradation of Tetrachloroethene by Chitin Fermentation Products in a Continuous Flow Column System.” Journal of Environ. Engr., June 665-673. This culture had grown for several years on PCE, anaerobic basal salts medium, Wolfe's vitamin solution and various electron donors including lactate (1-2 millimolar (mM)), formate (4 mM) and chitin using the Volatile Interface Transfer Apparatus (VITA) reactor system at the University of Illinois. Brennan, R. A., and Sanford, R. A. (2002). “Continuous steady-state method using Tenax for delivering tetrachloroethene to chlororespiring bacteria.” Appl. Environ. Microbiol., 68(3), 1464-1467. […] Using 16S rRNA gene-specific primers, both Dehalococcoides and Dehalobacter spp. were detected. Quantitative real-time PCR has been used to determine that approximately 1.65×10^7 Dehalococcoides gene copies were present per ml of culture.
For purpose of this disclosure, each bottle may be started with a certain amount of PCE. At subsequent times each bottle may be sampled for the degradation daughter products of PCE, namely trichloroethene (TCE), cis-dichloroethene (DCE), vinyl chloride (VC) and ethene, etc. Trans-DCE and 1,1-DCE are also daughter products of PCE, but they may not be detectable under the conditions disclosed here.
The rate of degradation may be determined by calculating the number of pmoles of chloride ions removed from PCE and subsequently from the amounts of the daughter products generated. The calculation may be performed as follows: Chloride (μmoles)=[…]−4×PCE (μmoles)−3×TCE (pmoles)−2×DCE (μmoles)−VC (μmoles)
The alternative chloride calculation is: Chloride (μmoles)=TCE (μmoles)+2×DCE (μmoles)+3×VC (μmoles)+4×Ethene (μmoles)
Next, the dechlorination rate may be determined for each bottle at each time by dividing the Chloride generated by the time (days). The data may be then normalized to the lactate control by taking the ratio of Chloride Rate (pmoles/day) and the Lactate Control Chloride Rate (pmoles/day). This ratio is called Relative Rate and is dimensionless.
As shown in the Examples, a paired t-test has been conducted to calculate the probability that the Relative Rate of one group (i.e. with Nutrient) is greater than the other group (i.e. without Nutrient). The null hypothesis is that the underlying means of the two paired groups are equal. The Probability that one group has higher Relative Rates than the other group is shown in various tables in the Examples.
The following components were used in the system for bioremediating contaminated ground water microcosms in Examples 2-8: • 160 milliliter (ml) stoppered serum bottles • 100 ml of anaerobic culture medium, groundwater containing an excess of bioavailable phosphorus and nitrogen at 0.5 mM Phosphate and 1 mM ammonium degassed with a nitrogen sparge • Nominally 1 gram of limestone • 19.54 micromoles (pmoles) Perchloroethene (PCE) • An excess of various electron donors were utilized • 3 ml of inoculum containing dechlorinating bacteria known to convert PCE to ethene. […]

## CC(O)C(=O)[O-].[Na+] (centres unmarked) [Lactate Control, sodium lactate]
0 days
  Cl^− Rate ± s.d.: 0.00 ± 0.00 µmol
  Cl^− ± s.d.: 0.00 ± 0.00 µmol
  DCE ± s.d.: 0.00 ± 0.00 µmol
  Ethene ± s.d.: 0.00 ± 0.00 µmol
  PCE ± s.d.: 20.80 ± 0.95 µmol
  TCE ± s.d.: 0.00 ± 0.00 µmol
  VC ± s.d.: 0.00 ± 0.00 µmol
21 days
  Cl^− Rate ± s.d.: 0.13 ± 0.05 µmol
  Cl^− ± s.d.: 2.83 ± 1.04 µmol
  DCE ± s.d.: 0.31 ± 0.18 µmol
  Ethene ± s.d.: 0.07 ± 0.01 µmol
  PCE ± s.d.: 18.6 ± 0.45 µmol
  TCE ± s.d.: 1.91 ± 0.71 µmol
  VC ± s.d.: 0.00 ± 0.00 µmol
35 days
  Cl^− Rate ± s.d.: 0.26 ± 0.10 µmol
  Cl^− ± s.d.: 8.95 ± 3.33 µmol
  DCE ± s.d.: 1.39 ± 0.72 µmol
  Ethene ± s.d.: 0.07 ± 0.00 µmol
  PCE ± s.d.: 10.80 ± 1.36 µmol
  TCE ± s.d.: 5.91 ± 1.90 µmol
  VC ± s.d.: 0.00 ± 0.00 µmol
50 days
  Cl^− Rate ± s.d.: 0.49 ± 0.10 µmol
  Cl^− ± s.d.: 24.59 ± 5.08 µmol
  DCE ± s.d.: 9.70 ± 2.99 µmol
  Ethene ± s.d.: 0.07 ± 0.00 µmol
  PCE ± s.d.: 3.13 ± 1.26 µmol
  TCE ± s.d.: 4.92 ± 1.03 µmol
  VC ± s.d.: 0.00 ± 0.00 µmol
79 days
  Cl^− Rate ± s.d.: 0.53 ± 0.02 µmol
  Cl^− ± s.d.: 42.00 ± 1.93 µmol
  DCE ± s.d.: 20.84 ± 0.96 µmol
  Ethene ± s.d.: 0.07 ± 0.00 µmol
  PCE ± s.d.: 0.00 ± 0.00 µmol
  TCE ± s.d.: 0.04 ± 0.07 µmol
  VC ± s.d.: 0.00 ± 0.01 µmol
138 days
  Cl^− Rate ± s.d.: 0.24 ± 0.01 µmol
  Cl^− ± s.d.: 33.42 ± 1.26 µmol
  DCE ± s.d.: 16.55 ± 0.64 µmol
  Ethene ± s.d.: 0.06 ± 0.00 µmol
  PCE ± s.d.: 0.00 ± 0.00 µmol
  TCE ± s.d.: 0.00 ± 0.00 µmol
  VC ± s.d.: 0.03 ± 0.03 µmol
Bottle 1, 21 days
  Relative Rate: 0.78
Bottle 1, 35 days
  Relative Rate: 0.63
Bottle 1, 50 days
  Relative Rate: 0.86
Bottle 1, 79 days
  Relative Rate: 1.08
Bottle 1, 138 days
  Relative Rate: 0.51
Bottle 2, 21 days
  Relative Rate: 1.43
Bottle 2, 35 days
  Relative Rate: 1.37
Bottle 2, 50 days
  Relative Rate: 1.24
Bottle 2, 79 days
  Relative Rate: 1.13
Bottle 2, 138 days
  Relative Rate: 0.49
Bottle 3, 21 days
  Relative Rate: 0.80
Bottle 3, 35 days
  Relative Rate: 1.00
Bottle 3, 50 days
  Relative Rate: 0.90
Bottle 3, 79 days
  Relative Rate: 1.03
Bottle 3, 138 days
  Relative Rate: 0.48
Through 138 days
  dechlorination kinetics / completeness of dechlorination (in words): statistically higher dechlorination kinetics as compared to PS1 and molasses
Time 21 days, bottles 1-3
  Relative Rate: 1.43 and 0.80 and 0.78
Time 50 days, bottles 1-3
  Relative Rate: 1.24 and 0.90 and 0.86
Time 79 days, bottles 1-3
  Relative Rate: 1.08 and 1.13 and 1.03
Time 138 days, bottles 1-3
  Relative Rate: 0.51 and 0.49 and 0.48
